Entries after “also recorded” stand apart in the source; their conditions may differ.
Tests used:
[1] = system: other Bcl2 family members (Bax, Bcl2, Bcl-XL, Bcl-w and Mcl-1); assay: Competitive fluorescence polarization (FP) assay, other Bcl2 family members; type: binding, human
Description: To confirm the binding of BKA-073 with Bak, we first conducted a competitive fluorescence polarization (FP) assay using purified human Bak protein, fluorescent Bak BH3 domain peptide, and BKA-073 as described, [37]-[40]. […] There are multiple amino acid differences in the BH3 domains between Bak and other Bcl2 family members, which helps to explain why BKA-073 only binds to Bak but not to other Bcl2 family members (i.e. Bax, Bcl2, Bcl-XL, Bcl-w and Mcl-1). In addition to the FP assay, isothermal titration calorimetry (ITC) was also employed to measure Bak/BKA-073 binding. […] In addition to human Bak/BKA-073 binding, we measured mouse Bak/BKA-073 binding using ITC.
(1 x 10^5 cells) was transferred to a 5 ml culture tube, followed by the addition of 5 μl of FITC Annexin V and 5 μl propidium iodide (PI). […] Samples were analyzed by flow cytometry (BD FACSCantoTMII, BD Biosciences, San Jose, CA). ∆% cell death was calculated with the formula: (% cell death treated - % cell death non-treated) as described […]
Fluorescence polarization (FP) assay
Fluorescence polarization assay was carried out as described previously. […] The FP values (in millipolarization units) were measured using a fluorescence microplate reader at 485/530 nm (Gemini XPS, Molecular Devices). Data analysis and inhibit ory constant (Ki) value was determined by GraphPad prism software as described. […]

[2] = system: Cyt c release in A549 cells; assay: Cyt c release from mitochondria in cells (subcellular fractionation, Western blot); type: cell-based, human; conditions: 24h
Procedure: To further test whether Bak is required for BKA-073 induction of Cyt c release, A549 parental, Bak^-/-, Bax^-/- and DKO cells were treated with BKA-073 (1 μM) for 24h, followed by analysis of Cyt c release from mitochondria. […] To further test whether BKA-073 directly induces Cyt c release from isolated mitochondria in a Bak- but not Bax-dependent fashion, purified mitochondria were isolated from A549 parental, Bak^-/-, Bax^-/- and DKO cells. The isolated mitochondria were treated with BKA-073 (1 μM) for 30 min at 30 °C. After centrifugation at 13000 g for 5 min, Cyt c in the supernatant (i.e., Cyt c release) was analyzed by Western blot. […]
Bak proteins was eluted with buffer B (20 mM Tris, pH 8.0, 120 mM NaCl, 300 mM imidazole, 10% glycerol with protease inhibitor). The elution peak of interest was checked by SDS -PAGE electrophoresis. The purified mouse Bak protein was dialyzed with buffer A . […]
Subcellular fractionation
Cells (2 ×107) were washed with cold 1× PBS and resuspended in isotonic mitochondrial buffer (210 mM mannitol, 70 mM sucrose, 1 mM EGTA, 10 mM Hepes, pH 7.5) containing 10% protease inhibitor mixture set I, homogenized with a polytron homogenizer, and then centrifuged at 1000 × g for 5 min to remove the nuclei and unbroken cells. The supernatant was centrifuged at 13,000 × g for 10 min to pellet mitochondria. […] Cyt c was analyzed

COc1ccc2nc3ccccc3c(NCCNCC(C)O)c2c1 (stereo not drawn) [BKA-073]
binding affinity with other Bcl2 family members [1]: very low binding affinity | Cyt c release ([2]; A549 Bax-/- cells, 1 μM): Cyt c release was observed | Cyt c release ([2]; A549 parental cells): promoted Cyt c release from mitochondria; also recorded: Cyt c release was observed
